From patent US20050234041A1, “Substituted 1-benzazepines and derivatives thereof” (priority 2001, published 2005)
Converted amounts (≈) assume the structure as drawn.

Key:
bacteria = assay: Antibacterial activity, broth dilution (Table III); type: cell-based; conditions: graded activity, organism not given
Source text: (§1) Antibacterial activity can be determined by several standard methods well known by those skilled in the art, including disc diffusions methods, broth dilution minimal inhibitory concentration (MIC) methods, etc., including the detailed method outlined below and as defined by the National Committee of Clinical Laboratory Standards in the United States.
(§2) MIC, Broth Dilution Method
(§3) Cultures of bacteria are initially brought up from the freezer stocks onto chocolate agar plates by streaking a loop-full, then incubated for 18 hours at 35-37° C. in a 5% CO2 incubator.
(§4) Five to 10 colonies are picked from the chocolate agar plate for subculture to Brain-Heart Infusion (BHI) broth or Mueller Hinton broth or BHI containing 4% serum and incubated as described.
(§5) Evaluate the optical density of the organisms in the wells of a 96 well microtiter plate with and without the test compound. The optical density of the organisms in the presence of an active compound will be less than the optical density of the same organism untreated. The activity of the compounds is described as either negative or the lowest concentration inhibiting growth. The results are depicted in Table III, where +/− represents the least activity and ++++ represents the greatest activity. In Table IV, the results are depicted where MIC represents the lowest concentration of antibiotic that inhibits bacterial growth.

Campylobacter jejuni = assay: MIC, broth dilution method, Campylobacter jejuni; type: cell-based; conditions: Table IV, MIC, lowest concentration that inhibits bacterial growth; for MIC: Campylobacter jejuni, read-out: Antibacterial Activity (micrograms/ml) Campylobacter jejuni
Source text: as §1, §2, §3, §4, §5

Helicobacter pylori = assay: MIC, broth dilution method, Helicobacter pylori; type: cell-based; conditions: Table IV, MIC, lowest concentration that inhibits bacterial growth; for MIC: Helicobacter pylori, read-out: Antibacterial Activity (micrograms/ml) Helicobacter pylori
Source text: as §1, §2, §3, §4, §5

Row | Compound | Antibacterial Activity (bacteria) | MIC (Campylobacter jejuni) | MIC (Helicobacter pylori) | melting point | Antibacterial Activity (micrograms/ml) Campylobacter jejuni (Campylobacter jejuni) | Antibacterial Activity (micrograms/ml) Helicobacter pylori (Helicobacter pylori)
1 | COc1cc2c(cc1Br)CCC(C(=O)OC(C)(C)C)C(=O)N2 (racemic) [Example 32, 7-Bromo-3(R,S)-tert-butoxycarbonyl-8-methoxy-2,3,4,5-tetrahydro-1H-1-benzazepine-2-one] | ++++ | > 200 µg/mL | 0.78 µg/mL (≈ 2.11 µM) | 207 to 208 °C |  | 
2 | COc1cc2c(cc1Br)CCC(C(=O)OC(C)(C)C)C(=O)N2Cc1cccc(F)c1 (racemic) [Example 30, 7-Bromo-3(R,S)-tert-butoxycarbonyl-1-(3-fluorobenzyl)-8-methoxy-2,3,4,5-tetrahydro-1H-1-benzazepine-2-one] | ++++ | > 200 µg/mL | 1.56 µg/mL (≈ 3.26 µM) | 146 to 148 °C |  | 
3 | O=C1CCCc2ccc(O)cc2N1 [Example 33, 8-Hydroxy-2,3,4,5-tetrahydro-1H-1-benzazepine-2-one] | ++++ | > 200 µg/mL | 0.78 µg/mL (≈ 4.4 µM) | 226 to 227 °C |  | 
4 | CCN1C(=O)CCCc2cc(N3CCN(C)CC3)c(OC)cc21 [Example 10] | +/− |  |  |  | >200 micrograms/ml | >200 micrograms/ml
5 | CCN1C(=O)C(C(=O)OC(C)(C)C)C=Cc2ccc(OC)cc21 (racemic) [Example 16, 3(R,S)-tert-Butoxycarbonyl-1-ethyl-8-methoxy-2,3-dihydro-1H-1-benzazepine-2-one] | ++++ | > 200 µg/mL | > 6.25 µg/mL | 173 to 174 °C |  | 
6 | CCN1C(=O)C(C(=O)O)CCc2cc(Br)c(OC)cc21 (racemic) [Example 17, 7-Bromo-3(R,S)-carboxyl-1-ethyl-8-methoxy-2,3,4,5tetrahydro-1H-1-benzazepine-2-one] | +/− | > 200 µg/mL | 200 µg/mL (≈ 584 µM) | 188 to 189 °C (dec.) |  | 
7 | CCN1C(=O)C(C(=O)O)CCc2cc(N3CCNCC3)c(OC)cc21.Cl (racemic) [Example 15, 3(R, S)-Carboxyl-1-ethyl-8-methoxy-7-(piperazin-1-yl)-2,3,4,5-tetrahydro-1H-1-benzazepine-2-one hydrochloride] | − | > 200 µg/mL | > 200 µg/mL | 173 to 176 °C (dec.) |  | 
8 | CCN1C(=O)C(C(=O)NC(C)(C)C)CCc2cc(Br)c(OC)cc21 (racemic) [Example 29, 7-bromo-3(R,S)-N-(tert-butyl)aminocarbonyl-1-ethyl-8-methoxy-2,3,4,5-tetrahydro-1H-1-benzazepine-2-one] | − | > 200 µg/mL | > 200 µg/mL |  |  | 
9 | CCN1C(=O)CCCc2cc(N3CCNCC3)c(OC)cc21.Cl [Example 22, 1-ethyl-8-methoxy-7-(piperazin-1-yl)-2,3,4,5-tetrahydro-1H-1-benzazepine-2-one hydrochloride] | − | > 200 µg/mL | > 200 µg/mL |  |  | 
